This passage reports EC50 and IC50 results from US11498896B2 (The Broad Institute, Inc., priority 2014, dated 2022).

SMILES strings stand for the structures.

Experiment [1] has as its target T1, human D2R/β-arrestin (Homo sapiens (Human), UniProt P14416). Nature of the experiment: β-arrestin agonist assay (PathHunter). It counts as cell-based. As to conditions: CHO-K1 cells expressing human D2R/β-arrestin; agonist mode. As for the experimental part:
The detection reagent (9.6 μL, Buffer:Emerald II:Galactor-Star in a 19:5:1 ratio, i.e., 14.06 mL:3.7 mL:0.74 mL=18.5 mL) was then added to the agonist plates.

Experiment [2] addresses T1, human D2R/β-arrestin. The experiment in a line: Gi/cAMP agonist assay (Lance Ultra cAMP, forskolin). As to conditions: CHO-K1 cells expressing human D2R/β-arrestin; agonist mode, 2.5 μM forskolin. Format: cell-based. As for the experimental part:
Eu-cAMP tracer solution (10 μl, PerkinElmer, 360 μl of Tracer in 17.64 ml kit buffer) and ULight-anti-cAMP solution (10 μl, 120 μL antibody in 17.88 ml kit buffer) was then added to each well.

In experiment [3] the target is T1, human D2R/β-arrestin. The experiment in a line: cell-based. As to conditions: cAMP Antagonist, CHO-K1 cells expressing human D2R/β-arrestin; antagonist mode, 2.5 μM forskolin and 2.7 nM quinpirole.
Method: Cells were prepared for assays by growing cultures for up to 2 weeks (from about 6-20 passages). A vial of frozen cells was thawed in a water bath held at 37° C. The cells were then transferred into a 50 ml tube with 10 ml growth media. The vial was rinsed with growth media and the contents transferred to the 50 ml tube. The 50 ml tube was centrifuged at 1200 rpm for 5 minutes at room temperature. […] When the cells reached about 90% confluence (approximately 3 days between passages), the cells were passaged and used for either the agonist or antagonist assays as described below.
The cells were prepared for Gi/cAMP assays as described above. The assays were performed using a PE Lance Ultra cAMP kit (TRF0263). The cells were grown on 225 mm dishes, then washed once with 1×PBS (Cellgro) before digestion with 2.5 ml 1× Detachment reagent (DRX 92-0009) for about 2 minutes. PBS (20 ml) was then added to the plate, and the cells were transferred to a 50 ml centrifuge tube, and centrifuged at room temperature using BD Dynac III, at 1200 rpm for 5 minutes. […] The plates were then incubated at room temperature for about 30 minutes before addition of Eu-cAMP tracer solution (10 μl, PerkinElmer) and then ULight-anti-cAMP solution (10 μl) to each well.
The target of experiment [4] is T1, human D2R/β-arrestin. The experiment in a line: cell-based. As to conditions: β-arrestin Antagonist, CHO-K1 cells expressing human D2R/β-arrestin; antagonist mode, quinpirole 130 nM.

T1 sequence (P14416 whole entry): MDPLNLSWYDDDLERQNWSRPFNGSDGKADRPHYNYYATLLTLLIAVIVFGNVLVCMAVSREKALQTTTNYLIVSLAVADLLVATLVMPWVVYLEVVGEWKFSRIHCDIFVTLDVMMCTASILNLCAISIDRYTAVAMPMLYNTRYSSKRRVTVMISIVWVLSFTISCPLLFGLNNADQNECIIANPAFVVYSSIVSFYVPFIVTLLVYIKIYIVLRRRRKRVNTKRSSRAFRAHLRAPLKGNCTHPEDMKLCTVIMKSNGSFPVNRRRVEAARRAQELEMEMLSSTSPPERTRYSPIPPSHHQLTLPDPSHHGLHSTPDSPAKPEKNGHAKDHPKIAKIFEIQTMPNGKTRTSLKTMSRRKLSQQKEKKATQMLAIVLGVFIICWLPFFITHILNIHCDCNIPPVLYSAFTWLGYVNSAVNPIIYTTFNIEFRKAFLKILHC

In general, EC50 refers to the concentration that produces a half-maximal response. Read a high EC50 as a less potent agent. The term IC50 denotes the concentration at which inhibition is half-maximal. `Cc1ccccc1OCCN1CCC(C)(Oc2ccccc2)CC1` [Example 69, 4-methyl-4-phenoxy-1-(2-(o-tolyloxy)ethyl)piperidine]: the EC50 in experiment [1] and in experiment [2] was < 0.1 µM each time. Further, the concentration for half-maximal inhibition (IC50) in experiment [3] was > 30 µM; in experiment [4] it was 0.1 to 1 µM.

Consider `CCc1ccccc1OCCN1CCC(C)(Oc2ccccc2)CC1` [Example 70, 1-(2-(2-Ethylphenoxy)ethyl)-4-methyl-4-phenoxypiperidine], for which the values for the EC50 in experiment [1] and in experiment [2] were > 30 µM and < 0.1 µM, respectively. The IC50 lay within 10 to 30 µM in experiment [3] and 0.1 to 1 µM in experiment [4].

In the case of `CC(C)c1ccccc1OCCN1CCC(C)(Oc2ccccc2)CC1` [Example 71, 1-(2-(2-isopropylphenoxy)ethyl)-4-methyl-4-phenoxypiperidine], the EC50 in experiment [1] and in experiment [2] was > 30 µM throughout. Further, the IC50 in experiment [3] and in experiment [4] was 0.1 to 1 µM in each case.

`COc1ccccc1OCCN1CCC(C)(Oc2ccccc2)CC1` [Example 72, 1-(2-(2-Methoxyphenoxy)ethyl)-4-methyl-4-phenoxypiperidine]: the EC50 is > 30 µM in experiment [1] and < 0.1 µM in experiment [2]. Also, the IC50 was < 0.1 µM in experiment [3] and 0.1 to 1 µM in experiment [4].

`CC1(Oc2ccccc2)CCN(CCOc2ccc(F)cc2C(F)(F)F)CC1` [Example 75, 1-(2-(4-Fluoro-2-(trifluoromethyl)phenoxy)ethyl)-4-methyl-4-phenoxy piperidine]: the EC50 in experiment [1] and in experiment [2] was > 30 µM each time. Besides, the IC50 in experiment [3] and in experiment [4] was 0.1 to 1 µM each time.

Regarding `CC1(Oc2ccccc2)CCN(CCOc2cc(F)ccc2C(F)(F)F)CC1` [Example 76, 1-(2-(5-fluoro-2-(trifluoromethyl)phenoxy)ethyl)-4-methyl-4-phenoxypiperidine], the EC50 in experiment [1] was > 30 µM; in experiment [2] it was < 0.1 µM. Further, the IC50 was > 30 µM in experiment [3] and 0.1 to 1 µM in experiment [4].

Consider `CC1(Oc2ccccc2)CCN(CCn2cccc(C(F)(F)F)c2=O)CC1` [Example 77, 1-(2-(4-methyl-4-phenoxypiperidin-1-yl)ethyl)-3-(trifluoromethyl)pyridin-2(1H)-one], for which the EC50 in experiment [1] is > 30 µM; in experiment [2], 10 to 30 µM. Moreover, the IC50 in experiment [3] and in experiment [4] was > 30 µM throughout.

As for `CC1(Oc2ccccc2)CCN(C(C)(C)COc2ccccc2C(F)(F)F)CC1` [Example 80, 4-methyl-1-(2-methyl-1-(2-(trifluoromethyl)phenoxy)propan-2-yl)-4-phenoxypiperidine], the EC50 was > 30 µM in experiment [1] and 10 to 30 µM in experiment [2]. For the same compound, the half-maximal inhibitory concentration (IC50) in experiment [3] and in experiment [4] was 1 to 10 µM each time.

As to `CC(CO)N1CCC(C)(Oc2ccccc2)CC1` (stereo not shown) [Example 81, 2-(4-Methyl-4-phenoxypiperidin-1-yl)propan-1-ol], the 50% effective concentration (EC50) in experiment [1] was > 30 µM; in experiment [2], 1 to 10 µM. The IC50 in experiment [3] is > 30 µM; in experiment [4] it was 10 to 30 µM.

Take `CC1CC(C)(Oc2ccccc2)CC(C)N1CCOc1ccccc1C(F)(F)F` (stereo not shown) [Example 83, 2,4,6-Trimethyl-4-phenoxy-1-(2-(2-(trifluoromethyl)phenoxy)ethyl) piperidine]: the EC50 in experiment [1] and in experiment [2] was > 30 µM throughout. The values for the IC50 in experiment [3] and in experiment [4] were 0.1 to 1 µM and 1 to 10 µM, respectively.

Regarding `COc1ccccc1OC1(C)CCN(CCOc2ccccc2)C1` (stereo not shown) [Example 84, 3-(2-Methoxyphenoxy)-3-methyl-1-(2-phenoxyethyl)pyrrolidine], the EC50 in experiment [1] was > 30 µM; in experiment [2], 1 to 10 µM. Besides, the results for the IC50 in experiment [3] and in experiment [4] were > 30 µM and 1 to 10 µM, respectively.

With `Cc1ccccc1OC1(C)CCN(CCOc2ccccc2)C1` (stereo not shown) [Example 85, 3-Methyl-1-(2-phenoxyethyl)-3-(o-tolyloxy)pyrrolidine], the results for the EC50 in experiment [1] and in experiment [2] were > 30 µM and < 0.1 µM, respectively. For the same compound, the IC50 is > 30 µM in experiment [3] and 1 to 10 µM in experiment [4].

`CC1(Oc2ccccc2)CCN(CCOc2ccccc2F)CC1` [Example 87, 1-(2-(2-fluorophenoxy)ethyl)-4-methyl-4-phenoxypiperidine]: the EC50 in experiment [1] and in experiment [2] was < 0.1 µM in each case. In addition, the IC50 in experiment [3] and in experiment [4] was > 30 µM each time.

As for `CC1(Oc2ccc(Cl)cc2)CCN(CCOc2ccccc2Cl)CC1` [Example 88, 4-(4-chlorophenoxy)-1-(2-(2-chlorophenoxy)ethyl)-4-methylpiperidine], the 50% effective concentration (EC50) in experiment [1] and in experiment [2] was < 0.1 µM throughout. Besides, the IC50 in experiment [3] is > 30 µM; in experiment [4], < 0.1 µM.

Regarding `CC1(Oc2ccccc2)CCN(CCOc2ccccc2Cl)CC1` [Example 89, 1-(2-(2-Chlorophenoxy)ethyl)-4-methyl-4-phenoxypiperidine], the EC50 in experiment [1] and in experiment [2] was < 0.1 µM in each case. Moreover, the IC50 in experiment [3] was > 30 µM; in experiment [4], < 0.1 µM.

As for `CC1(Oc2ccc(Cl)cc2)CCN(CCOc2ccc3ncoc3c2)C1` (stereo not shown) [Example 92, 6-(2-(3-(4-Chlorophenoxy)-3-methylpyrrolidin-1-yl)ethoxy)benzo[d]oxazole], the EC50 was > 30 µM in experiment [1] and < 0.1 µM in experiment [2]. The IC50 in experiment [3] is 0.1 to 1 µM; in experiment [4], 1 to 10 µM.

As for `OC1(c2ccccc2)CCN(CCOc2ccccc2)C1` (stereo not shown) [Example 93, 1-(2-Phenoxyethyl)-3-phenylpyrrolidin-3-ol], the EC50 was > 30 µM in experiment [1] and 0.1 to 1 µM in experiment [2]. For the same compound, the half-inhibitory concentration (IC50) in experiment [3] was 0.1 to 1 µM; in experiment [4] it was 1 to 10 µM.

Turning to `O=[N+]([O-])c1ccc(OC2(c3ccccc3)CCN(CCOc3ccccc3)C2)cc1` (stereo not shown) [Example 94, 3-(4-nitrophenoxy)-1-(2-phenoxyethyl)-3-phenylpyrrolidine], the half-maximal effective concentration (EC50) in experiment [1] is > 30 µM; in experiment [2], 0.1 to 1 µM. In addition, the IC50 in experiment [3] and in experiment [4] was 1 to 10 µM each time.

As to `CC1(Oc2ccc(Cl)cc2)CCCN(CCOc2ccccc2Cl)C1` (stereo not shown) [Example 97, 3-(4-chlorophenoxy)-1-(2-(2-chlorophenoxy)ethyl)-3-methylpiperidine], the EC50 in experiment [1] and in experiment [2] was > 30 µM in each case. The IC50 was < 0.1 µM in experiment [3] and 0.1 to 1 µM in experiment [4].

In the case of `CC1(Oc2ccc(Cl)cc2)CCCN(CCOc2ccccc2F)C1` (stereo not shown) [Example 98, 3-(4-Chlorophenoxy)-1-(2-(2-fluorophenoxy)ethyl)-3-methylpiperidine], the EC50 in experiment [1] and in experiment [2] was > 30 µM in each case. Also, the IC50 in experiment [3] was < 0.1 µM; in experiment [4] it was 0.1 to 1 µM.

Take `CC1(Oc2cccc(C(F)(F)F)c2)CCCN(CCOc2ccccc2)C1` (stereo not shown) [Example 100, 3-methyl-1-(2-phenoxyethyl)-3-(3-(trifluoromethyl)phenoxy)piperidine]: the concentration for a half-maximal effect (EC50) in experiment [1] and in experiment [2] was > 30 µM throughout. Besides, the values for the IC50 in experiment [3] and in experiment [4] were 0.1 to 1 µM and 1 to 10 µM, respectively.

For the compound `FC(F)(F)c1ccccc1OCCN1CCC(=Cc2ccccc2)CC1` [Example 101, 4-benzylidene-1-(2-(2-(trifluoromethyl)phenoxy)ethyl)piperidine], the EC50 in experiment [1] and in experiment [2] was > 30 µM throughout. Also, the 50% inhibitory concentration (IC50) in experiment [3] and in experiment [4] was 1 to 10 µM in each case.
